# Laboratory results reported in patent US9156831B2, “Chemical compounds” (ASTRAZENECA AB, priority 2013, dated 2015).
# Legend:
# 2313287 = experiment: Cell proliferation assay (MTS); assay type: cell-based, human
# Protocol: (§1) The sensitivity of a panel of human cancer cell lines to the effects of compounds was determined in a standard proliferation assay. Cell lines were sourced through the AstraZeneca Cell Bank.
# (§2) Cells were plated in 96 well plates at densities of 1000-6000 cells per well in RPMI media containing 10% FBS. After incubation at 37° C. for 16 hours, various concentrations of compound were added to the assay plates. After incubation for an additional 72 h, the viable cells were determined by the addition of MTS reagent (Promega #3582) to each well for 2 h. […] The formazan product was then quantitated by absorbance at 490 nm, as an indicator of the relative number of live cells. In order to determine the GI50 (concentration at which growth of cells was inhibited by 50%) the relative number of cells present at the time of drug addition was determined by comparison with the MTS readout before the drug was added, and this value was subtracted from the 72 hr value of untreated cells as a measure of cell growth during the assay.
# MCF7MDR+ = experiment: Cell proliferation assay (MTS); assay type: cell-based, human
# Protocol: as §1
# (§3) Cells were plated in 96 well plates at densities of 1000-6000 cells per well in RPMI media containing 10% FBS. After incubation at 37° C. for 16 hours, various concentrations of compound were added to the assay plates. After incubation for an additional 72 h, the viable cells were determined by the addition of MTS reagent (Promega #3582) to each well for 2 h. MTS is a tetrazolium salt that is bioreduced by metabolically active cells in the presence of an electron coupling reagent to formazan. The formazan product was then quantitated by absorbance at 490 nm, as an indicator of the relative number of live cells. In order to determine the GI50 (concentration at which growth of cells was inhibited by 50%) the relative number of cells present at the time of drug addition was determined by comparison with the MTS readout before the drug was added, and this value was subtracted from the 72 hr value of untreated cells as a measure of cell growth during the assay.
# 647V = experiment: Cell proliferation assay (MTS); assay type: cell-based, human
# Protocol: (§4) The sensitivity of a panel of human cancer cell lines to the effects of compounds was determined in a standard proliferation assay.
# as §2
# MOLP8 = experiment: Cell proliferation assay (MTS); assay type: cell-based, human
# Protocol: as §1, §3
# OVCAR3 = experiment: Cell proliferation assay (MTS); assay type: cell-based, human
# Protocol: as §4, §3
# THP1 = experiment: Cell proliferation assay (MTS); assay type: cell-based, human
# Protocol: as §1, §3
# AMO1 = experiment: Cell proliferation assay (MTS); assay type: cell-based, human
# Protocol: as §1, §3
# HEL9217 = experiment: Cell proliferation assay (MTS); assay type: cell-based, human
# Protocol: as §1, §3
# HCC1187 = experiment: Cell proliferation assay (MTS); assay type: cell-based, human
# Protocol: as §1, §3
# BT474 xenograft = experiment: Tumour growth inhibition, BT474 xenograft model; assay type: in vivo, mouse
# Protocol: BT474 is an estrogen receptor positive breast tumour cell lines with elevated Her2 expression and carries a mutation in the PIK3CA gene (K111N). Female Swiss athymic nude mice (swiss nu/nu-AZUK) were transplanted subcutaneously with human epithelial breast ductal carcinoma cell line BT474c (derived in AZ from BT474-ATCC HTB-20) tumours passaged in mice. Mice were implanted with 0.36 mg 60 day oestrogen pellet (Innovative Research of America) 24 hours prior to cell implantation. 5×10^6 cells in 50% matrigel (BD Bioscience) were injected s.c. on the left flank of the animals.
# Animals were randomised into groups of 10-15 when tumours reached a volume of ˜200-300 mm^3 and treatment commenced. Animals were dosed for 3-4 weeks by peroral route, with compound in a suitable vehicle at defined doses and schedules. Tumours were measured two-three times weekly by caliper and volume of tumours calculated using elliptical formula (pi/6×width×width×length).
# NOMO1 = experiment: Cell proliferation assay (MTS); assay type: cell-based, human
# Protocol: as §4, §3
# QGP1 = experiment: Cell proliferation assay (MTS); assay type: cell-based, human
# Protocol: as §4, §2
# SW948 = experiment: Cell proliferation assay (MTS); assay type: cell-based, human
# Protocol: as §4, §3
# CAMA1 = experiment: Cell proliferation assay (MTS); assay type: cell-based, human
# Protocol: as §1, §3
# H520 = experiment: Cell proliferation assay (MTS)
# Protocol: as §4, §3
# MCF7 = experiment: Cell proliferation assay (MTS); assay type: cell-based, human
# Protocol: as §4, §3
# SNU886 = experiment: Cell proliferation assay (MTS); assay type: cell-based, human
# Protocol: as §4, §2
# BEL7405 = experiment: Cell proliferation assay (MTS); assay type: cell-based, human
# Protocol: as §1, §3
# H1793 = experiment: Cell proliferation assay (MTS); assay type: cell-based, human
# Protocol: as §4, §3
# SNU354 = experiment: Cell proliferation assay (MTS); assay type: cell-based, human
# Protocol: as §4, §2
# MOLM13 = experiment: Cell proliferation assay (MTS); assay type: cell-based, human
# Protocol: as §4, §3
# H1869 = experiment: Cell proliferation assay (MTS); assay type: cell-based, human
# Protocol: as §4, §3
# QGY7703 = experiment: Cell proliferation assay (MTS); assay type: cell-based, human
# Protocol: as §4, §3
# MDAMB468 = experiment: Cell proliferation assay (MTS); assay type: cell-based, human
# Protocol: as §4, §2
# NUGC4 = experiment: Cell proliferation assay (MTS); assay type: cell-based, human
# Protocol: as §4, §3
# UMUC3 = experiment: Cell proliferation assay (MTS); assay type: cell-based, human
# Protocol: as §4, §3
# N87 = experiment: Cell proliferation assay (MTS); assay type: cell-based, human
# Protocol: as §1, §2
# HUPT4 = experiment: Cell proliferation assay (MTS); assay type: cell-based, human
# Protocol: as §4, §3
# HCC1937 = experiment: Cell proliferation assay (MTS); assay type: cell-based, human
# Protocol: as §4, §3
# RT4 = experiment: Cell proliferation assay (MTS); assay type: cell-based, human
# Protocol: as §4, §2
# H1703 = experiment: Cell proliferation assay (MTS); assay type: cell-based, human
# Protocol: as §1, §3
# SKHEP1 = experiment: Cell proliferation assay (MTS); assay type: cell-based, human
# Protocol: as §4, §2
# SNU761 = experiment: Cell proliferation assay (MTS); assay type: cell-based, human
# Protocol: as §4, §3
# SNU398 = experiment: Cell proliferation assay (MTS); assay type: cell-based, human
# Protocol: as §4, §2
# SNU5 = experiment: Cell proliferation assay (MTS); assay type: cell-based, human
# Protocol: as §4, §2
# BEL7404 = experiment: Cell proliferation assay (MTS); assay type: cell-based, human
# Protocol: as §1, §3
# SMMC7721 = experiment: Cell proliferation assay (MTS); assay type: cell-based, human
# Protocol: as §4, §2
# [1] = Homo sapiens, Stomach, PIK3CA WT
# [2] = Homo sapiens, Breast, PIK3CA WT
# [3] = Homo sapiens, Bladder, PIK3CA WT
smiles,measurement,setting,value
"CCn1nc(C2CCN(C(=O)CCO)CC2)nc1-c1cnc(N)c(-c2nnc(C(C)(C)C)o2)n1 [Example 3, 1-(4-(5-(5-amino-6-(5-tert-butyl-1,3,4-oxadiazol-2-yl)pyrazin-2-yl)-1-ethyl-1H-1,2,4-triazol-3-yl)piperidin-1-yl)-3-hydroxypropan-1-one]",Category,2313287,Resistant (resistant (GI50>1.0 μM))
same,GI50,2313287; [1],1.34 µM
same,Category,MCF7MDR+,Resistant (resistant (GI50>1.0 μM))
same,GI50,MCF7MDR+; [2],14.5 µM
same,Category,647V,Resistant (resistant (GI50>1.0 μM))
same,GI50,647V; [3],5.46 µM
same,Category,MOLP8,Resistant (resistant (GI50>1.0 μM))
same,GI50,"MOLP8; Homo sapiens, MOLP-8, Blood/lymph, PIK3CA WT",3.29 µM
same,Category,OVCAR3,Resistant (resistant (GI50>1.0 μM))
same,GI50,"OVCAR3; Homo sapiens, OVCAR-3, Ovary, PIK3CA WT",1.18 µM
same,Category,THP1,Sensitive (sensitive (GI50<=1.0 μM))
same,GI50,"THP1; Homo sapiens, THP-1, Blood/lymph, PIK3CA WT",0.528 µM
same,Category,AMO1,Resistant (resistant (GI50>1.0 μM))
same,GI50,"AMO1; Homo sapiens, Blood/lymph, PIK3CA WT",26.9 µM
same,Category,HEL9217,Resistant (resistant (GI50>1.0 μM))
same,GI50,"HEL9217; Homo sapiens, HEL 92.1.7, Blood/lymph, PIK3CA INCON",30 µM
same,Category,HCC1187,Sensitive (sensitive (GI50<=1.0 μM))
same,GI50,HCC1187; [2],0.509 µM
same,tumour growth,"BT474 xenograft; Example 3 alone 25 mg/kg BID every day, FIG. 11",partially inhibited growth
same,tumour growth,"BT474 xenograft; Example 3 alone 25 mg/kg BID, 2 days on/5 days off, vs vehicle, FIG. 10",partially inhibited tumour growth
same,tumour growth,"BT474 xenograft; Example 3 alone 50 mg/kg BID, 2 days on/5 days off, vs vehicle, FIG. 9",partially inhibited tumour growth
same,Category,NOMO1,Resistant (resistant (GI50>1.0 μM))
same,GI50,"NOMO1; Homo sapiens, NOMO-1, Blood/lymph, PIK3CA WT",2.17 µM
same,Category,QGP1,Resistant (resistant (GI50>1.0 μM))
same,GI50,"QGP1; Homo sapiens, QGP-1, Pancreas, PIK3CA WT",4.87 µM
same,Category,SW948,Sensitive (sensitive (GI50<=1.0 μM))
same,GI50,"SW948; Homo sapiens, Colon, PIK3CA MUT",0.911 µM
same,Category,CAMA1,Resistant (resistant (GI50>1.0 μM))
same,GI50,"CAMA1; Homo sapiens, CAMA-1, Breast, PIK3CA WT",15.5 µM
same,Category,H520; H520,Resistant (resistant (GI50>1.0 μM))
same,GI50,"H520; Homo sapiens, NCI-H520",6.62 µM
same,Category,MCF7,Sensitive (sensitive (GI50<=1.0 μM))
same,GI50,"MCF7; Homo sapiens, Breast, PIK3CA MUT",0.309 µM
same,Category,SNU886,Resistant (resistant (GI50>1.0 μM))
same,GI50,"SNU886; Homo sapiens, SNU-886, Liver, PIK3CA WT",15.6 µM
same,Category,BEL7405,Resistant (resistant (GI50>1.0 μM))
same,GI50,"BEL7405; Homo sapiens, Liver, PIK3CA WT",8.11 µM
same,Category,H1793,Resistant (resistant (GI50>1.0 μM))
same,GI50,"H1793; Homo sapiens, NCI-H1793, Lung, PIK3CA WT",7.33 µM
same,Category,SNU354,Resistant (resistant (GI50>1.0 μM))
same,GI50,"SNU354; Homo sapiens, SNU-354, Liver, PIK3CA WT",5.6 µM
same,Category,MOLM13,Resistant (resistant (GI50>1.0 μM))
same,GI50,"MOLM13; Homo sapiens, MOLM-13, Blood/lymph, PIK3CA WT",1.22 µM
same,Category,H1869,Resistant (resistant (GI50>1.0 μM))
same,GI50,"H1869; Homo sapiens, Lung, PIK3CA WT",6.04 µM
same,Category,QGY7703,Resistant (resistant (GI50>1.0 μM))
same,GI50,"QGY7703; Homo sapiens, QGY-7703, Liver, PIK3CA WT",11.1 µM
same,Category,MDAMB468,Resistant (resistant (GI50>1.0 μM))
same,GI50,"MDAMB468; Homo sapiens, MDA-MB-468, Breast, PIK3CA WT",9.33 µM
same,Category,NUGC4,Resistant (resistant (GI50>1.0 μM))
same,GI50,"NUGC4; Homo sapiens, NUGC-4, Stomach, PIK3CA WT",30 µM
same,Category,UMUC3,Resistant (resistant (GI50>1.0 μM))
same,GI50,UMUC3; [3],6.22 µM
same,Category,N87,Resistant (resistant (GI50>1.0 μM))
same,GI50,N87; [1],1.3 µM
same,Category,HUPT4,Sensitive (sensitive (GI50<=1.0 μM))
same,GI50,"HUPT4; Homo sapiens, HuP-T4, Pancreas, PIK3CA WT",0.641 µM
same,Category,HCC1937,Resistant (resistant (GI50>1.0 μM))
same,GI50,HCC1937; [2],30 µM
same,Category,RT4,Resistant (resistant (GI50>1.0 μM))
same,GI50,"RT4; Homo sapiens, RT-4, Bladder, PIK3CA WT",8.94 µM
same,Category,H1703,Sensitive (sensitive (GI50<=1.0 μM))
same,GI50,"H1703; Homo sapiens, NCI-H1703, Lung, PIK3CA WT",0.514 µM
same,Category,SKHEP1,Resistant (resistant (GI50>1.0 μM))
same,GI50,"SKHEP1; Homo sapiens, SK-HEP1, Liver, PIK3CA WT",30 µM
same,Category,SNU761,Resistant (resistant (GI50>1.0 μM))
same,GI50,"SNU761; Homo sapiens, Liver, PIK3CA WT",18.5 µM
same,Category,SNU398,Resistant (resistant (GI50>1.0 μM))
same,GI50,"SNU398; Homo sapiens, SNU-398, Liver, PIK3CA WT",30 µM
same,Category,SNU5,Resistant (resistant (GI50>1.0 μM))
same,GI50,"SNU5; Homo sapiens, SNU-5, Stomach, PIK3CA WT",21.2 µM
same,Category,BEL7404,Resistant (resistant (GI50>1.0 μM))
same,GI50,"BEL7404; Homo sapiens, BEL-7404, Liver, PIK3CA WT",14.9 µM
same,Category,SMMC7721,Resistant (resistant (GI50>1.0 μM))
same,GI50,"SMMC7721; Homo sapiens, SMMC-7721, Liver, PIK3CA WT",30 µM
